Drawing on ChEMBL document CHEMBL1147226, “dd-diketopiperazines: antibiotics active against Vibrio anguillarum isolated from marine bacteria associated with cultures of Pecten maximus” (2003), this text covers MIC for 15 compounds.

In brackets after ≈: the same amount, converted by molar mass.

The test relates to Vibrio anguillarum. Put plainly: Antimicrobial activity against Vibrio anguillarum after 24 to 48 hrs. The class given is functional.
Broadly, the MIC is the lowest concentration that inhibits growth of the organism. Higher therefore signals a less susceptible organism. The compound `CC(C)[C@@H]1NC(=O)[C@H]2CCCN2C1=O` came in with an MIC of 0.11 µg/mL (≈ 0.561 µM).

In turn, `CC[C@@H](C)[C@H]1NC(=O)[C@@H]2CCCN2C1=O` yielded a minimum inhibitory concentration (MIC) of 0.11 µg/mL (≈ 0.523 µM).

Turning to `CC(C)C[C@H]1NC(=O)[C@@H]2CCCN2C1=O`, 0.12 µg/mL (≈ 0.571 µM) was the least that counted as inhibitory (MIC).

As for `CC(C)[C@H]1NC(=O)[C@H]2CCCN2C1=O`, it took 0.05 µg/mL (≈ 0.255 µM) to inhibit growth (MIC).

In the case of `O=C1N[C@H](Cc2ccccc2)C(=O)N2CCC[C@@H]12`, inhibition of growth (MIC) required 0.13 µg/mL (≈ 0.532 µM).

In the case of `O=C1N[C@@H](Cc2ccccc2)C(=O)N2CCC[C@H]12`, the MIC turned out to be 0.1 µg/mL (≈ 0.409 µM).

In turn, `CC(C)C[C@@H]1NC(=O)[C@H]2CCCN2C1=O` registered an MIC of 0.13 µg/mL (≈ 0.618 µM).

With `O=C1N[C@H](Cc2ccccc2)C(=O)N2C[C@H](O)C[C@H]12`, the lowest concentration to inhibit growth (MIC) was 0.07 µg/mL (≈ 0.269 µM).

In the case of `O=C1N[C@H](Cc2ccccc2)C(=O)N2CCC[C@H]12`, the MIC came to 0.03 µg/mL (≈ 0.123 µM).

The compound `CC(C)C[C@H]1NC(=O)[C@@H](C(C)C)NC1=O` registered an MIC of 0.05 µg/mL (≈ 0.236 µM).

In turn, `CC[C@@H](C)[C@H]1NC(=O)[C@H]2CCCN2C1=O` yielded an MIC of 0.05 µg/mL (≈ 0.238 µM).

The compound `CC(C)[C@H]1NC(=O)[C@@H]2CCCN2C1=O` yielded an MIC of 0.14 µg/mL (≈ 0.713 µM).

On to `CC(C)C[C@H]1NC(=O)[C@@H](Cc2cnc[nH]2)NC1=O`, for which the lowest concentration to inhibit growth (MIC) was 0.07 µg/mL (≈ 0.28 µM).

Consider `CC[C@@H](C)[C@@H]1NC(=O)[C@H]2CCCN2C1=O`, for which the MIC is 0.12 µg/mL (≈ 0.571 µM).

In turn, `CC(C)C[C@H]1NC(=O)[C@H]2CCCN2C1=O` showed a minimal inhibitory concentration (MIC) of 0.04 µg/mL (≈ 0.19 µM).
